Experimental data taken from ChEMBL document CHEMBL1201862, “PubChem BioAssay data set” (2004).
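Interpolation was linear, between the two tested concentrations surrounding the appropriate level; five concentrations were tested over 48 hours in 96-well plates. Here, GI50 denotes the concentration required for 50% inhibition of growth.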 Active and inactive are the calls of the source. Cut-off read from the data, not from the text of the source: active = GI50 up to about 1.1 µM and inactive = higher.

Legend:
Assay in all cases: NCI anticancer screen, dose series, 48 h
[1] = test system: 786-0
[2] = test system: A498
[3] = test system: A549
[4] = test system: ACHN
[5] = test system: BT-549
[6] = test system: CAKI-1
[7] = test system: CCRF-CEM
[8] = test system: COLO 205
[9] = test system: DU-145
[10] = test system: EKVX
[11] = test system: HCC 2998
[12] = test system: HCT-116
[13] = test system: HCT-15
[14] = test system: HL-60
[15] = test system: HOP-62
[16] = test system: HOP-92
[17] = test system: HT-29
[18] = test system: Hs-578T
[19] = test system: IGROV-1
[20] = test system: K562
[21] = test system: KM12
[22] = test system: LOX IMVI
[23] = test system: M14
[24] = test system: MCF7
[25] = test system: MDA-MB-231
[26] = test system: MDA-MB-435
[27] = test system: MDA-N
[28] = test system: MOLT-4
[29] = test system: Malme-3M
[30] = test system: NCI-H226
[31] = test system: NCI-H23
[32] = test system: NCI-H460
[33] = test system: NCI-H522
[34] = test system: NCI/ADR-RES
[35] = test system: OVCAR-3
[36] = test system: OVCAR-4
[37] = test system: OVCAR-5
[38] = test system: OVCAR-8
[39] = test system: PC-3
[40] = test system: RPMI-8226
[41] = test system: RXF 393
[42] = test system: SF-268
[43] = test system: SF-295
[44] = test system: SF-539
[45] = test system: SK-MEL-28
[46] = test system: SK-MEL-2
[47] = test system: SK-MEL-5
[48] = test system: SK-OV-3
[49] = test system: SN12C
[50] = test system: SNB-19
[51] = test system: SNB-75
[52] = test system: SW-620
[53] = test system: T47D
[54] = test system: TK-10
[55] = test system: U-251
[56] = test system: UACC-257
[57] = test system: UACC-62
[58] = test system: UO-31

## CCN(CC)CCSc1c(C(C)=O)c(=O)n(-c2ccccc2)c(=S)n1-c1ccccc1
[1]
  GI50: 1.8 µM (inactive)
[2]
  GI50: 19.1 µM (inactive)
[3]
  GI50: 13.8 µM (inactive)
[4]
  GI50: 3.77 µM (inactive)
[5]
  GI50: 15.5 µM (inactive)
[6]
  GI50: 10.2 µM (inactive)
[7]
  GI50: 0.571 µM (active)
[8]
  GI50: 1.8 µM (inactive)
[9]
  GI50: 3.08 µM (inactive)
[10]
  GI50: 15.1 µM (inactive)
[11]
  GI50: 11.9 µM (inactive)
[12]
  GI50: 2.28 µM (inactive)
[13]
  GI50: 2.8 µM
[14]
  GI50: 2.52 µM (inactive)
[15]
  GI50: 18.9 µM (inactive)
[16]
  GI50: 1.9 µM (inactive)
[17]
  GI50: 16.7 µM (inactive)
[18]
  GI50: 23.4 µM (inactive)
[19]
  GI50: 13 µM (inactive)
[20]
  GI50: 3.09 µM (inactive)
[21]
  GI50: 17.2 µM (inactive)
[22]
  GI50: 3.32 µM (inactive)
[23]
  GI50: 2.05 µM (inactive)
[24]
  GI50: 3.18 µM (inactive)
[25]
  GI50: 13.1 µM (inactive)
[26]
  GI50: 6.17 µM (inactive)
[27]
  GI50: 6.68 µM (inactive)
[28]
  GI50: 2.77 µM (inactive)
[29]
  GI50: 6.1 µM (inactive)
[30]
  GI50: > 40.3 µM (inactive)
[31]
  GI50: 14.7 µM (inactive)
[32]
  GI50: 21.1 µM (inactive)
[33]
  GI50: 2.21 µM (inactive)
[34]
  GI50: 22.2 µM (inactive)
[35]
  GI50: 2.81 µM (inactive)
[36]
  GI50: 9.1 µM (inactive)
[37]
  GI50: 21 µM (inactive)
[38]
  GI50: 3.46 µM (inactive)
[39]
  GI50: 4.04 µM (inactive)
[40]
  GI50: 2.13 µM (inactive)
[41]
  GI50: 1.9 µM (inactive)
[42]
  GI50: 15.8 µM (inactive)
[43]
  GI50: > 78 µM (inactive)
[44]
  GI50: 2.4 µM (inactive)
[45]
  GI50: 10.5 µM (inactive)
[46]
  GI50: 15.5 µM (inactive)
[47]
  GI50: 13.8 µM (inactive)
[48]
  GI50: 34 µM (inactive)
[49]
  GI50: 14.4 µM (inactive)
[50]
  GI50: 21.1 µM (inactive)
[51]
  GI50: 33.3 µM (inactive)
[52]
  GI50: 2.25 µM (inactive)
[53]
  GI50: 2.58 µM (inactive)
[54]
  GI50: 5.47 µM (inactive)
[55]
  GI50: 17.7 µM (inactive)
[56]
  GI50: 9.98 µM (inactive)
[57]
  GI50: 14.4 µM (inactive)
[58]
  GI50: 1.96 µM (inactive)
